In PubChem BioAssay (NCI):
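Values below derive from 48-hour exposures of cells grown in 96-well plates, with endpoints linearly interpolated between the two concentrations bracketing the appropriate inhibition level. Here, GI50 denotes the concentration required for 50% inhibition of growth. TGI: concentration producing complete growth inhibition.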

How the values were obtained:
Test in all cases: NCI anticancer screen, dose series, 48 h
[1] = test system: HOP-62 NSCLC
[2] = test system: SW-620 colon
[3] = test system: CCRF-CEM leukemia
[4] = test system: MOLT-4 leukemia
[5] = test system: NCI-H23 lung
[6] = test system: EKVX NSCLC
[7] = test system: HCT-15 colon
[8] = test system: TK-10 renal
[9] = test system: PC-3 prostate
[10] = test system: SF-295 CNS
[11] = test system: A498 renal
[12] = test system: SN12C renal
[13] = test system: NCI-H226 lung
[14] = test system: HL-60(TB) leukemia
[15] = test system: MCF7 breast
[16] = test system: MALME-3M melanoma
[17] = test system: BT-549 breast
[18] = test system: HOP-92 NSCLC
[19] = test system: HS 578T breast
[20] = test system: KM12 colon
[21] = test system: UO-31 renal
[22] = test system: HCC-2998 colon
[23] = test system: SK-MEL-28 melanoma
[24] = test system: OVCAR-4 ovarian
[25] = test system: LOX IMVI melanoma
[26] = test system: 786-0 renal
[27] = test system: HCT-116 colon
[28] = test system: NCI/ADR-RES ovarian
[29] = test system: SF-268 CNS
[30] = test system: A549 NSCLC
[31] = test system: K-562 leukemia
[32] = test system: RXF 393 renal
[33] = test system: MDA-MB-231 breast
[34] = test system: OVCAR-8 ovarian
[35] = test system: COLO 205 colon
[36] = test system: U251 CNS
[37] = test system: MDA-MB-435
[38] = test system: UACC-257 melanoma
[39] = test system: NCI-H522 lung
[40] = test system: UACC-62 melanoma
[41] = test system: SK-OV-3 ovarian
[42] = test system: RPMI-8226 leukemia
[43] = test system: SR leukemia
[44] = test system: HT29 colon
[45] = test system: SF-539 CNS
[46] = test system: ACHN renal
[47] = test system: IGROV1 ovarian
[48] = test system: OVCAR-3 ovarian
[49] = test system: CAKI-1 renal
[50] = test system: NCI-H460 lung
[51] = test system: SK-MEL-5 melanoma
[52] = test system: SNB-19 CNS
[53] = test system: DU-145 prostate
[54] = test system: M14 melanoma
[55] = test system: SK-MEL-2 melanoma
[56] = test system: OVCAR-5 ovarian
[57] = test system: SNB-75 CNS
[58] = test system: T-47D breast

In the case of `C[C@@H]1C[C@@H]([C@@H](CC2CC(=O)NC(=O)C2)OC(=O)CC(=O)c2ccccc2)C(=O)[C@@H](C)C1`, the GI50 [1] is reported as 990 nM, the TGI [1] is reported as over 100000 nM and the GI50 [2] is reported as 512 nM. It also gave a TGI [2] of over 43100 nM, a GI50 [3] of 466 nM and a TGI [3] of over 85500 nM. The GI50 [4] was 494 nM, the TGI [4] was over 100000 nM and the GI50 [5] was 545 nM. The TGI [5] was over 80600 nM, the GI50 [6] was 495 nM and the GI50 [7] was 809 nM. For the same compound, the TGI [7] was over 100000 nM, the GI50 [8] was 306 nM and the TGI [8] was over 24300 nM. For the same compound, the GI50 [9] was 444 nM, the TGI [9] was over 100000 nM and the GI50 [10] was 224 nM. The TGI [10] was 12300 nM, the GI50 [11] was 177 nM and the TGI [11] was 2360 nM. The GI50 [12] was 150 nM, the TGI [12] was over 39300 nM and the GI50 [13] was 686 nM. The TGI [13] was over 100000 nM, the GI50 [14] was 402 nM and the TGI [14] was over 100000 nM. The GI50 [15] was 645 nM, the TGI [15] was over 100000 nM and the GI50 [16] was 496 nM. For the same compound, the TGI [16] was 13600 nM, the GI50 [17] was 2320 nM and the TGI [17] was 66700 nM. The GI50 [18] was 324 nM, the TGI [18] was over 24900 nM and the GI50 [19] was 604 nM. The TGI [19] was 10900 nM, the GI50 [20] was 888 nM and the TGI [20] was 70600 nM. The GI50 [21] was 159 nM, the TGI [21] was 5100 nM and the GI50 [22] was 373 nM. For the same compound, the TGI [22] was over 26500 nM, the GI50 [23] was 752 nM and the TGI [23] was over 29600 nM. The GI50 [24] was 1910 nM, the TGI [24] was over 100000 nM and the GI50 [25] was 646 nM. It also gave a TGI [25] of over 100000 nM, a GI50 [26] of 293 nM and a TGI [26] of 13200 nM. The GI50 [27] was 489 nM, the TGI [27] was over 45200 nM and the GI50 [28] was 689 nM. The TGI [28] was over 100000 nM, the GI50 [29] was 908 nM and the TGI [29] was over 32000 nM. For the same compound, the GI50 [30] was 567 nM, the TGI [30] was over 100000 nM and the GI50 [31] was 682 nM. The TGI [31] was over 100000 nM, the GI50 [32] was 496 nM and the TGI [32] was 25100 nM. It also gave a GI50 [33] of 2940 nM, a TGI [33] of 90500 nM and a GI50 [34] of 405 nM. The TGI [34] was over 68800 nM, the GI50 [35] was 849 nM and the TGI [35] was over 100000 nM. For the same compound, the GI50 [36] was 925 nM, the TGI [36] was over 100000 nM and the GI50 [37] was 463 nM. The TGI [37] was over 32600 nM, the GI50 [38] was 358 nM and the TGI [38] was 13000 nM. The GI50 [39] was 191 nM, the TGI [39] was 4320 nM and the GI50 [40] was 915 nM. For the same compound, the TGI [40] was over 100000 nM, the GI50 [41] was 411 nM and the TGI [41] was over 43700 nM. The GI50 [42] was 4030 nM, the TGI [42] was over 100000 nM and the GI50 [43] was 2010 nM. The TGI [43] was over 100000 nM, the GI50 [44] was 634 nM and the TGI [44] was over 100000 nM. The GI50 [45] was 521 nM, the TGI [45] was 16600 nM and the GI50 [46] was 77.7 nM. It also gave a TGI [46] of over 100000 nM, a GI50 [47] of 620 nM and a GI50 [48] of 1740 nM. It also gave a TGI [48] of over 32700 nM, a GI50 [49] of 252 nM and a GI50 [50] of 461 nM. For the same compound, the TGI [50] was over 43900 nM, the GI50 [51] was 661 nM and the TGI [51] was over 100000 nM. The GI50 [52] was 774 nM, the TGI [52] was over 100000 nM and the GI50 [53] was 769 nM. It also gave a TGI [53] of over 33300 nM, a GI50 [54] of 588 nM and a TGI [54] of over 49100 nM. It also gave a GI50 [55] of 880 nM, a TGI [55] of 22800 nM and a GI50 [56] of 662 nM. The TGI [56] was over 100000 nM, the GI50 [57] was 911 nM and the TGI [57] was over 55100 nM. The GI50 [58] was 554 nM and the TGI [58] was over 29400 nM.
